Laboratory results reported in US5972975A, “Substituted 2-aminopyridines as inhibitors of nitric oxide synthase” (priority 1997, dated 1999).
Counter-ions that a name gives are not always drawn. Like-named read-outs stand apart in the source and are kept apart here.

Columns and labels:
iNOS = iNOS (Homo sapiens, UniProt P35228); assay: NOS activity: L-[3H]citrulline formation from L-[3H]arginine, iNOS; format: biochemical
Protocol: (§1) NOS activity is measured as the formation of L-[2,3,4,5-^3 H]Citrullinefrom L-[2,3,4,5-^3 H]Arginine. The incubation buffer (100 μL) contained; 100 mM TES, pH 7.5, 5 μM FAD, 5 μM FMN, 10 μM BH4, 0.5 mM NADPH, 0.5 mM DTT, 0.5 mg/mL BSA, 2 mM CaCl2, 10 μg/mL calmodulin (bovine), 1 μM L-Arg, 0.2 μCi L-[2,3,4,5-^3 H]Arg, and the inhibitor in aqueous DMSO (max. 5%). The reaction is initiated by addition of enzyme. Incubations are performed at room temperature for 30 minutes and stopped by the addition of an equal volume of quenching buffer consisting of 200 mM sodium citrate, pH 2.2, 0.02% sodium azide. Reaction products are separated by passing through a cation exchange resin and quantitated as cpm by scintillation counting.

ecNOS = ecNOS (Homo sapiens, UniProt P29474); assay: NOS activity: L-[3H]citrulline formation from L-[3H]arginine, ecNOS; format: biochemical
Protocol: as §1

ncNOS = ncNOS (Homo sapiens, UniProt P29475); assay: biochemical
[1] = Table 2, iNOS, 1 μM L-Arg, pH 7.5, room temperature, 30 minutes, read-out: iNOS (IC50)
[2] = Table 2, ecNOS, 1 μM L-Arg, pH 7.5, room temperature, 30 minutes, read-out: ecNOS (IC50)
[3] = Table 2, ncNOS, 1 μM L-Arg, pH 7.5, room temperature, 30 minutes, read-out: ncNOS (IC50)
[4] = Table 1, iNOS, 1 μM L-Arg, pH 7.5, room temperature, 30 minutes, read-out: iNOS (IC50)
[5] = Table 1, ecNOS, 1 μM L-Arg, pH 7.5, room temperature, 30 minutes, read-out: ecNOS (IC50)
[6] = Table 1, ncNOS, 1 μM L-Arg, pH 7.5, room temperature, 30 minutes, read-out: ncNOS (IC50)

Chain of ncNOS (P29475 whole entry): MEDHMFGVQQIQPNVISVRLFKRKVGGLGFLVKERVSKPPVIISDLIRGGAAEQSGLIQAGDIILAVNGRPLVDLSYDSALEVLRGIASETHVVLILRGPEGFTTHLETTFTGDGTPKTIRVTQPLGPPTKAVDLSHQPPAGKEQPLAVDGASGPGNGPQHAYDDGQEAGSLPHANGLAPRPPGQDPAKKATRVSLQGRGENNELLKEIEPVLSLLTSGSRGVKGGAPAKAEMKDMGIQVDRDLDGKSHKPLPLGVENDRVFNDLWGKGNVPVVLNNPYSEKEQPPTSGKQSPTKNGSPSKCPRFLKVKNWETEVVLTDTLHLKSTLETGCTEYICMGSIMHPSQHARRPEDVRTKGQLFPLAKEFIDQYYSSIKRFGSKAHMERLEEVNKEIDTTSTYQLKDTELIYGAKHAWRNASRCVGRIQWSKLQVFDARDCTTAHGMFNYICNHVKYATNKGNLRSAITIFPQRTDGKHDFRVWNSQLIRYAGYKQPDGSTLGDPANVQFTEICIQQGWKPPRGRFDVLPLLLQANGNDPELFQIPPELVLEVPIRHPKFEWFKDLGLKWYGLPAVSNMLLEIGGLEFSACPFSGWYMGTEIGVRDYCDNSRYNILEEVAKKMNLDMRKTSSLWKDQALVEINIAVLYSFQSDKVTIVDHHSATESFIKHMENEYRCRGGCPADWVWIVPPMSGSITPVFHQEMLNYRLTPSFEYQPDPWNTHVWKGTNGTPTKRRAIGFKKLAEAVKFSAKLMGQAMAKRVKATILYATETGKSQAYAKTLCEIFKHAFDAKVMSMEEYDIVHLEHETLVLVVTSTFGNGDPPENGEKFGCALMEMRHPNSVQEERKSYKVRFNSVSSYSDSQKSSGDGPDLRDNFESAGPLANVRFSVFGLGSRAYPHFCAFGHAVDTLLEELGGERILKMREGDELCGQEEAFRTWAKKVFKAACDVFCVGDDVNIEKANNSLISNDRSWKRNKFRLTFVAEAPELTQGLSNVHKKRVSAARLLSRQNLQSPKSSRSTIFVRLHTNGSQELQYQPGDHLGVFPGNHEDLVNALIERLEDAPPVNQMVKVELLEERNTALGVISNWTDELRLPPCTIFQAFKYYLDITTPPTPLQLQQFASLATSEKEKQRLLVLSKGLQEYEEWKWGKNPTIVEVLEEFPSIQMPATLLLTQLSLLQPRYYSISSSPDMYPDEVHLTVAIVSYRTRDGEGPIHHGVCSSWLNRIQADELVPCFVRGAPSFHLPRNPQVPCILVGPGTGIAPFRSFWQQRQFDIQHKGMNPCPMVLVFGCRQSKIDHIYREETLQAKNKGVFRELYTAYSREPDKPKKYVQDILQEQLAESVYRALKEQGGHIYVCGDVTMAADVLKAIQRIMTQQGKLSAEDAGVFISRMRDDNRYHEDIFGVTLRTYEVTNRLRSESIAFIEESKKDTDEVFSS

## CCCc1c(C)ccnc1N [Example 26, 2-Amino-3-n-propyl-4-picoline dihydrochloride]
iNOS; [1]
  IC50: < 50 µM

## Cc1cc(N)nc(CC(C)C)c1 [Example 72, 2-Amino-4-methyl-6-(2-methylpropyl)pyridine]
iNOS; [1]
  IC50: < 1 µM
ecNOS; [2]
  IC50: < 1 µM
ncNOS; [3]
  IC50: < 1 µM

## Cc1cc(N)ncc1Br [Example 41, 2-Amino-5-bromo-4-methylpyridine]
iNOS; [1]
  IC50: < 10 µM
ecNOS; [2]
  IC50: < 10 µM
ncNOS; [3]
  IC50: < 10 µM

## Cc1cc(N)nc(CCC(N)C(=O)O)c1 (stereo not drawn) [Example 59, α-(2-(6-Amino-4-methylpyrid-2-yl)ethyl)glycine dihydrochloride]
iNOS; [1]
  IC50: < 1 µM
ecNOS; [2]
  IC50: < 1 µM
ncNOS; [3]
  IC50: < 1 µM

## Nc1nccc2c1CCCC2 [Example 65, 1-Amino-5,6,7,8-tetrahydroisoquinoline]
iNOS; [1]
  IC50: < 50 µM
ecNOS; [2]
  IC50: < 50 µM
ncNOS; [3]
  IC50: < 50 µM

## CSc1c(C)ccnc1N [Example 21, 2-Amino-3-methylthio-4-picoline]
iNOS; [1]
  IC50: < 50 µM
ecNOS; [2]
  IC50: < 50 µM
ncNOS; [3]
  IC50: < 10 µM

## Cc1cc(N)ncc1N [Example 30, 2.5-Diamino-4-picoline]
iNOS
  IC50: < 10 µM
ecNOS
  IC50: < 50 µM
ncNOS
  IC50: < 50 µM

## Nc1cc(-c2ccccc2)ccn1 [Example 11]
iNOS; [4]
  IC50: > 50 µM

## Cc1cc(N)ncc1C(=O)O [Example 43, 2-Amino-5-carboxy-4-methylpyridine]
iNOS; [1]
  IC50: > 50 µM
ecNOS; [2]
  IC50: > 50 µM
ncNOS; [3]
  IC50: > 50 µM

## Cc1cccnc1N [Example 2]
iNOS; [4]
  IC50: 3.4 µM
ecNOS; [5]
  IC50: 1.2 µM

## C#Cc1cnc(N)cc1C [Example 32, 2-Amino-5-ethynyl-4-methyl-pyridine]
iNOS; [1]
  IC50: < 10 µM
ecNOS; [2]
  IC50: < 50 µM
ncNOS; [3]
  IC50: < 50 µM

## CSc1ccnc(N)c1 [Example 35, 4-Methylthio-2-aminopyridine]
iNOS; [1]
  IC50: < 50 µM
ecNOS; [2]
  IC50: < 50 µM
ncNOS; [3]
  IC50: < 10 µM

## Cc1ccnc(N)c1Cl [Example 28, 2-Amino-3-chloro-4-picoline]
iNOS; [1]
  IC50: < 1 µM
ecNOS; [2]
  IC50: < 10 µM
ncNOS; [3]
  IC50: < 10 µM

## Cc1ccnc(NCc2ccccc2)c1 [Example 18, 2-Benzylamino-4-methylpyridine]
iNOS; [4]
  IC50: 2.4 µM
ecNOS; [5]
  IC50: < 50 µM

## N#Cc1ccnc(N)c1 [Example 16, 2-Amino-4-cyanopyridine]
iNOS; [4]
  IC50: > 50 µM

## Cc1ccc(N)nc1C [Example 51, 2-Amino-5,6-dimethylpyridine]
iNOS; [1]
  IC50: < 10 µM
ecNOS; [2]
  IC50: < 10 µM
ncNOS; [3]
  IC50: < 10 µM

## Cc1ccnc(N)c1C [Example 13, 2-Amino-3,4-dimethylpyridine]
iNOS; [4]
  IC50: 0.076 µM
ecNOS; [5]
  IC50: < 1 µM

## CCc1cccc(N)n1 [Example 52, 2-Amino-6-ethylpyridine]
iNOS; [1]
  IC50: < 1 µM
ecNOS; [2]
  IC50: < 1 µM
ncNOS; [3]
  IC50: < 1 µM

## Nc1cc(C(F)(F)F)ccn1 [Example 8]
iNOS; [4]
  IC50: 13.2 µM
ecNOS; [5]
  IC50: 73 µM

## Nc1cc(Cc2ccccc2)ccn1 [Example 12]
iNOS; [4]
  IC50: > 50 µM

## Cc1cc(N)nc(CCC(C)C)c1 [Example 71, 2-Amino-4-methyl-6-(3-methylbutyl)pyridine]
iNOS; [1]
  IC50: < 1 µM
ecNOS; [2]
  IC50: < 10 µM
ncNOS; [3]
  IC50: < 1 µM

## CC(=O)NCCCCc1cc(C)cc(N)n1 [Example 57, 6-(4-Acetamidobutyl)-2-amino-4-methylpyridine]
iNOS; [1]
  IC50: < 10 µM
ecNOS; [2]
  IC50: < 10 µM
ncNOS; [3]
  IC50: < 1 µM

## Cc1cc(N)nc(CCCCC(=O)O)c1 [Example 74, 5-(6-Amino-4-methyl-2-pyridinyl)pentanoic acid hydrochloride]
iNOS; [1]
  IC50: < 10 µM
ecNOS; [2]
  IC50: < 1 µM
ncNOS; [3]
  IC50: < 10 µM

## COC(=O)c1cnc(N)cc1C [Example 44, 2-Amino-5-methoxycarbonyl-4-methylpyridine]
iNOS; [1]
  IC50: > 50 µM

## Cc1ccnc(N)c1NC(=O)NCc1ccccc1 [Example 19, 2-Amino-3-benzylurea-4-picoline]
iNOS; [1]
  IC50: < 10 µM
ecNOS; [2]
  IC50: > 50 µM
ncNOS; [3]
  IC50: > 50 µM

## Cc1cc(N)ncc1CO [Example 47, 2-Amino-5-hydroxymethyl-4-methylpyridine]
iNOS; [1]
  IC50: < 10 µM

## COCc1c(C)ccnc1N [Example 25, 2-Amino-3-methoxymethyl-4-picoline dihydrochloride]
iNOS; [1]
  IC50: < 10 µM
ecNOS; [2]
  IC50: < 50 µM
ncNOS; [3]
  IC50: < 50 µM

## Nc1ccnc(N)c1 [Example 38, 2,4-Diaminopyridine dihydrochloride]
iNOS; [1]
  IC50: < 10 µM
ecNOS; [2]
  IC50: < 50 µM
ncNOS; [3]
  IC50: < 50 µM

## Cc1ccnc(N)c1N [Example 17, 2,3-Diamino-4-methylpyridine]
iNOS; [4]
  IC50: 0.058 µM
ecNOS; [5]
  IC50: 0.081 µM

## CCc1ccc(N)nc1 [Example 60, 2-Amino-5-ethylpyridine]
iNOS; [1]
  IC50: < 10 µM
ecNOS; [2]
  IC50: < 50 µM

## Cc1cc(N)nc(CCCC(=O)O)c1 [Example 75, 4-(6-Amino-4-methyl-2-pyridinyl)butanoic acid hydrochloride]
iNOS; [1]
  IC50: < 10 µM
ecNOS; [2]
  IC50: < 1 µM
ncNOS; [3]
  IC50: < 10 µM

## Nc1cc(Cl)ccn1 [Example 15, 2-Amino-4-chloropyridine]
iNOS; [4]
  IC50: < 1 µM
ecNOS; [5]
  IC50: < 10 µM
ncNOS; [6]
  IC50: < 10 µM

## Nc1ncccc1O [Example 9]
iNOS; [4]
  IC50: 47.5 µM
ecNOS; [5]
  IC50: > 50 µM
ncNOS; [6]
  IC50: > 50 µM

## Cc1cc(N)nc(CCc2ccccc2)c1 [Example 73, 2-Amino-4-methyl-6-(2-phenylethyl)pyridine]
iNOS; [1]
  IC50: < 10 µM
ecNOS; [2]
  IC50: < 10 µM
ncNOS; [3]
  IC50: < 10 µM

## CSCc1ccnc(N)c1 [Example 22, 2-Amino-4-methylthiomethylpyridine]
iNOS; [1]
  IC50: < 50 µM
ecNOS; [2]
  IC50: > 50 µM
ncNOS; [3]
  IC50: > 50 µM

## Nc1ccc(-c2ccccc2)cn1 [Example 39, 2-Amino-5-phenylpyridine]
iNOS; [1]
  IC50: > 50 µM

## Cc1cc(N)nc(CC[C@H](C)N)c1 [Example 76, (S)-2-Amino-6-(3-aminobutyl)-4-methylpyridine]
iNOS; [1]
  IC50: < 1 µM
ecNOS; [2]
  IC50: < 10 µM
ncNOS; [3]
  IC50: < 1 µM

## Cc1cc(N)nc(CC[C@@H](C)N)c1 [Example 77, (R)-2-Amino-6-(3-aminobutyl)-4-methylpyridine]
iNOS; [1]
  IC50: < 10 µM
ecNOS; [2]
  IC50: < 50 µM
ncNOS; [3]
  IC50: < 1 µM

## Cc1cc(N)nc(CCO)c1 [Example 58, 2-Amino-6-(2-hydroxyethyl)-4-methylpyridine]
iNOS; [1]
  IC50: < 1 µM
ecNOS; [2]
  IC50: < 1 µM
ncNOS; [3]
  IC50: < 1 µM

## Cc1cc(N)nc(CCCCN)c1 [Example 56, 2-Amino-6-(4-aminobutyl)-4-methylpyridine]
iNOS; [1]
  IC50: < 1 µM
ecNOS; [2]
  IC50: < 10 µM
ncNOS; [3]
  IC50: < 1 µM

## Cc1ccnc(N)c1N(C)C [Example 27, 2-Amino-3-dimethylamino-4-picoline trihydrochloride]
iNOS; [1]
  IC50: < 50 µM
ecNOS; [2]
  IC50: > 50 µM
ncNOS; [3]
  IC50: < 50 µM

## Nc1cccnc1N [Example 10]
iNOS; [4]
  IC50: < 10 µM
ecNOS; [5]
  IC50: 1.9 µM

## CC(=O)Nc1cnc(N)cc1C [Example 31, 5-Acetylamino-2-amino-4-picoline]
iNOS; [1]
  IC50: < 10 µM
ecNOS; [2]
  IC50: < 50 µM
ncNOS; [3]
  IC50: < 50 µM

## Cc1ccc(N)nc1 [Example 4]
iNOS; [4]
  IC50: 1.3 µM
ecNOS; [5]
  IC50: 3.1 µM

## Cc1cccc(N)n1 [Example 5]
ecNOS; [5]
  IC50: 0.82 µM

## Cc1cc(N)nc(CCCc2ccccc2)c1 [Example 69, 2-Amino-4-methyl-6-(3-phenylpropyl)pyridine]
iNOS; [1]
  IC50: < 50 µM
ecNOS; [2]
  IC50: < 50 µM
ncNOS; [3]
  IC50: < 10 µM

## C=CCCc1cc(C)cc(N)n1 [Example 53, 2-Amino-6-(3-buten-1-yl)-4-methylpyridine]
iNOS; [1]
  IC50: < 1 µM
ecNOS; [2]
  IC50: < 1 µM
ncNOS; [3]
  IC50: < 1 µM

## COC(=O)c1cc(Cl)cc(N)n1 [Example 36, 4-Chloro-6-methoxycarbonyl-2-aminopyridine]
iNOS; [1]
  IC50: < 50 µM
ecNOS; [2]
  IC50: > 50 µM
ncNOS; [3]
  IC50: > 50 µM

## Cc1cc(C)nc(N)c1 [Example 6]
iNOS; [4]
  IC50: 0.108 µM

## Cc1cc(N)nc(CCCN)c1 [Example 66, 2-Amino-6-(3-aminopropyl)-4-methylpyridine]
iNOS; [1]
  IC50: < 1 µM
ecNOS; [2]
  IC50: < 10 µM
ncNOS; [3]
  IC50: < 1 µM

## Cc1cc(N)nc(CCN)c1 [Example 67, 2-Amino-6-(2-aminoethyl)-4-methylpyridine]
iNOS; [1]
  IC50: < 1 µM
ecNOS; [2]
  IC50: < 50 µM
ncNOS; [3]
  IC50: < 1 µM

## CC(=O)NCc1cnc(N)cc1C [Example 46, 2-Amino-5-acetamidomethyl-4-methylpyridine]
iNOS; [1]
  IC50: < 10 µM
ecNOS; [2]
  IC50: > 50 µM
ncNOS; [3]
  IC50: > 50 µM

## Nc1cc2c(cn1)CCCC2 [Example 64, 3-Amino-5,6,7,8-tetrahydroisoquinoline]
iNOS; [1]
  IC50: < 10 µM

## Cc1cc(N)ncc1C#N [Example 42, 2-Amino-5-cyano-4-methylpyridine]
iNOS; [1]
  IC50: > 50 µM

## Cc1ccnc(N)c1CO [Example 23, 2-Amino-3-hydroxymethyl-4-picoline]
iNOS; [1]
  IC50: < 1 µM
ecNOS; [2]
  IC50: < 1 µM

## CC(C)(C)c1ccnc(N)c1 [Example 14, 2-Amino-4-tert-butylpyridine]
iNOS; [4]
  IC50: > 50 µM

## CCc1c(C)ccnc1N [Example 24, 2-Amino-3-ethyl-4-picoline dihydrochloride]
iNOS; [1]
  IC50: < 10 µM
ecNOS; [2]
  IC50: < 10 µM

## Cc1cc(N)ncc1-c1ccccc1 [Example 40, 2-Amino-4-methyl-5-phenylpyridine]
iNOS; [1]
  IC50: > 50 µM
